Activity calls are given as the source filed them. The calls are words filed in the database; no cut-off is given here. Where a SMILES comes first, the peptide text is derived from it. [ ]: non-standard residue; d: D form. The star is where a group is joined. Dip = N[C@H](C(=O)O)C(c1ccccc1)c1ccccc1; X2 = ClCCCCCCOCCOCCOCCOCCOCCN*; Chg = N[C@H](C(=O)O)C1CCCCC1; NMeA = CN[C@@H](C)C(=O)O; X1 = ClCCCCCCOCCOCCOCCN*

Holding throughout (assay type): cell-based
Experiment [1] deals with Transcription factor Jun (Homo sapiens) (UniProt P05412). The experiment in a line: Induction of degradation of halo-tagged c-jun (unknown origin) expressed in HEK293 cells assessed as time required to reduce level of halo-tagged c-jun at 10 uM by Western blot analysis. On the technique in general: In western blotting, separated proteins are transferred to a membrane and probed.

For experiment [2], the target named is Cyclic AMP-responsive element-binding protein 1 (Homo sapiens) (UniProt P16220). The experiment is described as follows: Induction of degradation of halo-tagged CREB1 (unknown origin) expressed in HEK293 cells at 10 uM by Western blot analysis.
Experiment [3] addresses Tumor necrosis factor (Homo sapiens) (UniProt P01375). The experiment is described as follows: Induction of degradation of halo-tagged human TNFalpha expressed in HEK293 cells at 30 uM after 6 hrs by Western blot analysis.
Experiment [4] shares this target. The experiment is described as follows: Induction of degradation of halo-tagged TNFalpha (unknown origin) expressed in HEK293 cells at 10 uM after 24 hrs by Western blot analysis.
Experiment [5] shares this target. The experiment is described as follows: Induction of degradation of halo-tagged human TNFalpha expressed in HEK293 cells at 1 uM after 6 hrs by Western blot analysis.
In experiment [6] the test system is HEK293. The experiment is described as follows: Induction of degradation of bacterial haloalkane dehalogenase expressed in HEK293 cells at 1 uM after 6 hrs by Western blot analysis. Conditions: Bacteria.
For experiment [7], the target named is Tumor necrosis factor (Homo sapiens) (UniProt P01375). The experiment in a line: Increase in level of halo-tagged human TNFalpha expressed in HEK293 cells at 0.1 to 0.3 uM after 6 hrs by Western blot analysis.
Experiment [8] has as its target Cell division control protein 42 homolog (Homo sapiens) (UniProt P60953). The experiment in a line: Induction of degradation of halo-tagged human Cdc42 expressed in HEK293 cells at 1 uM after 6 hrs by Western blot analysis.
For experiment [9], the system named is HEK293. The experiment is described as follows: Increase in level of bacterial haloalkane dehalogenase expressed in HEK293 cells at 0.1 to 0.3 uM after 6 hrs by Western blot analysis. Conditions: Bacteria.
The target of experiment [10] is Tumor necrosis factor (Homo sapiens) (UniProt P01375). The experiment in a line: Induction of degradation of halo-tagged human TNFalpha expressed in HEK293 cells after 6 hrs by Western blot analysis.
The target is the same in experiment [11]. The experiment is described as follows: Induction of degradation of halo-tagged human TNFalpha expressed in HEK293 cells at 1 uM after 6 hrs by Western blot analysis in presence of proteasome inhibitor MG132.

Sequence of Cyclic AMP-responsive element-binding protein 1 (Homo sapiens) (P16220 whole entry): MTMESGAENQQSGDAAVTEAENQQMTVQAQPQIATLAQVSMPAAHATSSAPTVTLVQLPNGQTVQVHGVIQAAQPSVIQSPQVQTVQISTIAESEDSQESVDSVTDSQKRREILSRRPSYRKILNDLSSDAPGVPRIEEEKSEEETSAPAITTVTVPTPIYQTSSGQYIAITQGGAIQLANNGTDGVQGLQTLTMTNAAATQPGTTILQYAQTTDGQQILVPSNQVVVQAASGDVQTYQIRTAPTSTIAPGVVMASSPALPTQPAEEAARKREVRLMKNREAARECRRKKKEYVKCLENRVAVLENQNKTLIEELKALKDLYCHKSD
Sequence of Transcription factor Jun (Homo sapiens) (P05412 whole entry): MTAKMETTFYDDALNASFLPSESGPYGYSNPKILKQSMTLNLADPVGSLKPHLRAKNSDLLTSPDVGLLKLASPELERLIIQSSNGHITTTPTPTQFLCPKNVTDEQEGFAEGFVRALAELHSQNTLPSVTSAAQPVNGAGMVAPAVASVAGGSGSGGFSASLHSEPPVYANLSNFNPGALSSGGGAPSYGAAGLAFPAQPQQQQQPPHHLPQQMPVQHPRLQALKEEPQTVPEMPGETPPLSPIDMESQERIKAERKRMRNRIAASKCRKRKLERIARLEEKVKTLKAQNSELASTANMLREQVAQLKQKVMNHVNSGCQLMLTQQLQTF
Sequence of Tumor necrosis factor (Homo sapiens) (P01375 whole entry): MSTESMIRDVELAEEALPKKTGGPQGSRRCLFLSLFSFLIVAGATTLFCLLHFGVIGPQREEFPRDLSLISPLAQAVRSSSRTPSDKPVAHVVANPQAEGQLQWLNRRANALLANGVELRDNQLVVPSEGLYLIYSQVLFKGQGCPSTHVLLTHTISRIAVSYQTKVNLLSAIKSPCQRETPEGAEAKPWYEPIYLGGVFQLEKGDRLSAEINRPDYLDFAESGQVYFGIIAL
Sequence of Cell division control protein 42 homolog (Homo sapiens) (P60953 whole entry, looked up): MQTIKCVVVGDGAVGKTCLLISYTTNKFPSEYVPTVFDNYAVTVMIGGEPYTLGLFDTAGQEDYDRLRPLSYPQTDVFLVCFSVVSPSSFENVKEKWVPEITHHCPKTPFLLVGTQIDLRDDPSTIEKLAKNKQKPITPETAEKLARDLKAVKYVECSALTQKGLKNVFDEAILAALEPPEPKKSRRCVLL

`CC(C)C[C@H](NC(=O)[C@@H](O)[C@H](N)Cc1ccccc1)C(=O)NCCOCCOCCOCCCCCCCl`: the TIME in [1] came to 21 h. Besides, the result in experiment [2] was Active.

Turning to `CC(C)C[C@H](NC(=O)[C@@H](O)[C@H](N)Cc1ccccc1)C(=O)NCCOCCOCCOCCOCCCCCCCl`, the TIME in [1] was found to be 21 h. In addition, in experiment [3], the result was inactive. Further, the result in experiment [4] and in experiment [2] was Active.

Take `CC(C)C[C@H](NC(=O)[C@@H](O)[C@H](N)Cc1ccccc1)C(=O)NCCOCCOCCOCCOCCOCCCCCCCl`: the TIME in experiment [1] is 21 h. Further, the outcome in experiment [2] was Active.

`CC(C)C[C@H](NC(=O)[C@@H](O)[C@H](N)Cc1ccccc1)C(=O)NCCOCCOCCOCCOCCOCCOCCCCCCCl`: the TIME in [1] came out at 21 h. For the same compound, the result in experiment [2] was Active.

On to `NCCOCCOCCOCCCCCCCl`, for which the result in experiment [5] was inactive.

Turning to `CN[C@@H](C)C(=O)N[C@H](C(=O)N1CCC[C@H]1C(=O)N[C@H](C(=O)NCCOCCOCCOCCCCCCCl)C(c1ccccc1)c1ccccc1)C1CCCCC1` (H-[NMeA][Chg]P[Dip]-X1), the outcome in experiment [6], in experiment [7] and in experiment [9] was Active. Moreover, the outcome in experiment [8] and in experiment [11] was inactive. Also, the Activity result in experiment [10] was “Dose-dependent effect”.

Turning to `CN[C@@H](C)C(=O)N[C@H](C(=O)N1CCC[C@H]1C(=O)N[C@H](C(=O)NCCOCCOCCOCCOCCOCCCCCCCl)C(c1ccccc1)c1ccccc1)C1CCCCC1` (H-[NMeA][Chg]P[Dip]-X2), the result in experiment [6], in [7], in experiment [8] and in [9] was Active. Also, the outcome in experiment [5] was inactive.

Consider `CN[C@@H](C)C(=O)NC(C(=O)N1CCC[C@H]1C(=O)N[C@H](C(=O)OC)C(c1ccccc1)c1ccccc1)C1CCCCC1` (single isomer, unassigned), for which the result in experiment [5] was inactive.

These data come from ChEMBL document CHEMBL3813609, “Efficient protein knockdown of HaloTag-fused proteins using hybrid molecules consisting of IAP antagonist and HaloTag ligand” (Bioorg Med Chem, 2016).
